Key:
[1] = In vivo toxicity, repeated intravenous injections in mice; conditions: 10 mg/kg
Procedure: Mice received repeated intravenous injections of compound 25 (10 mg/kg) or vehicle.

mTORC1 = mTORC1 (Homo sapiens, UniProt P42345); test: Immunoblot of mTORC1 activity in TSC2^−/− AML cells; assay type: cell-based; set-up: AML cells (1.10^6 cells) deficient for TSC2 (TS2^−/−) or reconstituted with wild type TSC2; endogenous in cells; host or cells: AML (angiomyolipoma) cells from a patient, TSC2-/- or reconstituted with wild type TSC2; conditions: 10 μM, FIG. 15
Procedure: AML cells (1.10^6 cells) deficient for TSC2 (TS2^−/−) or reconstituted with wild type TSC2 (TSC2^+/+) (generous gift from Dr M. Pende, Paris) were treated or untreated for indicated times with 10 μM of compound 25 or rapamycin and then cells were lyzed. 100 μg of protein was loaded and resolved by SDS-PAGE and indicated immunoblots were performed. Total S6 and β-actin serve as loading controls. S6 is phosphorylated by p70S6K on its serine 240 and 244. 4EBP1 is phosphorylated by mTORC1 on its Threonine at positions 37 and 46. p70S6K and 4EBP1 are direct substrates of mTORC1. mTORC1-driven phosphorylation of 4EBP1 can be monitored by the appearance of a high molecular weight band which disappears in presence of compound 25 or Rapamycin (see FIG. 15). Of note, restoration of TS2 expression in AML cells reduces the basal level of S6 and 4EBP1 phosphorylation.
(§1) Immunoblots Excepted for immunoprecipitation experiments in which cells were lyzed with RIPA buffer, cells were lyzed for 30 min at 4° C. in Lysis buffer (25 mM HEPES pH 7.4, 1% v/v Triton X-100, 150 mM NaCl, 2 mM EGTA supplemented with a mix of protease inhibitors). Protein concentration was determined by the bicinchoninic acid method (Pierce, Rockford, Ill., USA) according to the manufacturer's protocol. Proteins were resolved by 8, 10 or 12% SDS-PAGE and transferred to a nitrocellulose membrane (GE Healthcare, Buckinghamshire, UK). […]

[2] = test system: BT474 (ER-positive/HER2-positive) breast tumor cell line; test: Cell death by MTT assay, BT474; assay type: cell-based, human; conditions: 24 hours, mean of two experiments
Procedure: The ER-positive breast tumor cell lines MCF-7 and T47-D and the HER2 positive breast tumor cell lines MDA-MB-453 and BT474 (also ER-positive) were incubated with the indicated concentration of each mentioned compound of formula (I) for 24 hours and then cell death was assessed using MTT assay.
For each cell line, the percentage of cell death (mean of four experiments for cell lines MCF-7 and T47-D, and two experiments for cell lines MDA-MB-453 and BT474) is given in view of the increasing concentration of each tested compound of the invention.
Cell viability was assessed using the 3-[4,5-dimethylthiazol-2-yl]-2,5-diphenyltetrazolium bromide (MTT) viability assay (1). In brief, cells (4×10^4 per well) were cultured for 20 h in flat-bottomed 96 well plates with various concentrations of the apoptosis inducer. Then 0.015 ml of MTT (5 mg/ml in PBS) was added to each well and incubated for 4 h at 37° C. Formazan salt precipitats were dissolved by adding 0.115 ml of isopropyl alcohol containing 1% formic acid (v/v), and the absorbance was measured at 570 nm.

mTORC2 = mTORC2 (Homo sapiens, UniProt P42345); test: Immunoblot of mTORC2 substrate Akt-Ser473 in CEM cells; assay type: cell-based; set-up: endogenous in cells; host or cells: CEM cells; conditions: 2 hours, FIG. 16
Procedure: CEM cells (1·10^6 cells) were incubated with indicated concentrations of compound 25 for 2 hours and lysates of the cells were subjected to Western blot analysis. Inhibitory activity of compound 25 on mTORC1 substrates p70S6K-Thr389 and 4EBP1-Thr37 and 46 and on mTORC2 substrate Akt-Ser473 and on PDK1 substrate Akt-Thr308 was evaluated by immunoblotting. Total 4EBP1, p70S6K, Akt and […] serve as loading controls. The compounds of the invention and more particularly compound 25 may be competitive inhibitors of mTOR because they inhibit mTORC1 (4EBP1 and p70S6K) and mTORC2 substrates (AKT at S473) as shown in FIG. 16.
as §1, with “UK). The membrane was blocked 15 min with TBST (50 mM Tris, 160 mM NaCl, 0.05% v/v Tween 20, pH 7.4) containing 5% w/v dried skimmed milk (TBS™). Primary antibody was incubated overnight at 4° C. in TBS™.” for “UK).”

[3] = target: T1, mTOR protein regarding 243 human kinases (Homo sapiens, UniProt P42345); test: Kinome by KinaseProfiler; assay type: biochemical; conditions: 1 μM, FIG. 11
T1 construct: purchased

MDA-MB-231 cells = test: Boyden chamber cell migration, MDA-MB-231 stimulated with CD95L; assay type: cell-based, human; conditions: MDA-MB-231, 1 μM, CD95L 100 ng/ml, 24 hours, FIG. 17B
Procedure: TNBC (MDA-MB-231 and BT549) cell lines were pre-incubated for 1 hour in presence or absence of non-cytotoxic amount of compound 25 (1 μM) and then treated or untreated with CD95L (100 ng/ml) for 24 hours. Cell migration was analyzed using Boyden chamber assay. Migrating Giemsa-stained cells were lysed and absorbance was measured at a wavelength of 560 nm. Values represent the means±SEM of three independently performed experiments. *p<0.05 as calculated using two-tailed Mann-Whitney test.
After membrane hydration of Boyden chambers (Millipore, Molsheim, France) containing 8 μm pore membranes, 10^5 cells were added to the top chamber. The bottom chamber was filled with low serum (1%)-containing medium in the presence or absence of cl-CD95L (100 ng/ml). Breast cancer cells were incubated for 24 h. To quantify invasion, cells were fixed with methanol and stained with Giemsa. Stained cells were then removed from the top-side of the membrane using a cotton-tipped swab and five representative pictures for each insert were taken of the invading cells from the reverse side. For each experiment, invading cells were lysed and absorbance at 560 nm was measured.

SMILES: O=[N+]([O-])C1=Cc2cc(Br)cc(Br)c2OC1c1ccc(Br)cc1 (stereo not drawn) [Compound 25, 6,8-dibromo-2-(4-bromo-phenyl)-3-nitro-2H-chromene]
- toxicity in mice [1]: did not exhibit toxicity
- body weight of the tested mice ([1]; FIG. 13A): maintained
- survival of the tested mice ([1]; at 7 days, FIG. 13B): all mice survived
- mTORC1 activity in TSC2^−/− cells (mTORC1): inhibit mTORC1 activity
- mTORC1-driven phosphorylation of 4EBP1 (high molecular weight band) (mTORC1; AML cells): disappears
- percentage of cell death ([2]; BT474, 6.25 μM): 75.54%
- percentage of cell death ([2]; BT474, 12.5 μM): 95.61%
- percentage of cell death ([2]; BT474, 25 μM): 90.49%
- percentage of cell death ([2]; BT474, 50 μM): 96.81%
- inhibitory activity on mTORC2 substrate (AKT at S473) (mTORC2): inhibit
- selectivity in kinome [3]: selectivity of compound 25 for the mTOR protein
- migration of tumor cells stimulated with CD95L (MDA-MB-231 cells): abrogate

Reference: US9656984B2, “PI3K/AKT/mTOR inhibitors and pharmaceutical uses thereof” (UNIVERSITE DE RENNES 1, priority 2013, dated 2017)
